Reference: patent US20100120848A1, “STABLE PHARMACEUTICAL FORMULATIONS OF MONTELUKAST SODIUM” (Teva Pharmaceutical Industries Ltd., priority 2006, published 2010)

Experiment: Excipient compatibility: montelukast sodium/excipient mixtures stored at 55° C. for 48 hours, sulfoxide of formula (I) by HPLC
Format: physicochemical
Conditions: for % Sulfoxide of Formula (I), 0 hours: by weight relative to montelukast sodium, before storage
Procedure: Comparative testing with montelukast sodium was performed to determine the conditions which cause the degradation of montelukast sodium into the corresponding sulfoxide. Compositions of montelukast sodium and each of the excipients of the prior art tablets were prepared and subjected to stressed storage conditions. The amount of the corresponding sulfoxide present in each of the compositions was measured by high performance liquid chromatography (“HPLC”) both before and after storage.
Sample mixtures of montelukast sodium and each of the individual excipients were prepared. Each sample was stored at 55° C. for 48 hours. The percentage by weight of sulfoxide of formula (I) relative to montelukast sodium in each sample was measured at 0 hours and at 48 hours by HPLC. HPLC was performed on a Beta-Basic C18 analytical column (150×4.6 mm I.D.), packed with 5 μm diameter particles (Thermo Election Corporation). The mobile phase was a mixture of acetonitrile and 20 mM KH2PO4 (60:40) and its flow-rate was 1.5 mL/min. The UV detector was set at 225 nm or 281 nm and the column temperature was 40° C.

| SMILES | increase of the amount of the corresponding sulfoxide in the composition over the storage period (in the presence of microcrystalline cellulose, stressed storage conditions) | % Sulfoxide of Formula (I), 0 hours [%] |
| --- | --- | --- |
| CC(C)(O)c1ccccc1CC[C@@H](SCC1(CC(=O)[O-])CC1)c1cccc(/C=C/c2ccc3ccc(Cl)cc3n2)c1.[Na+] [montelukast sodium, [R-(E)]-1-[[[1-[3-[2-(7-chloro-2-quinolinyl)ethenyl]phenyl]-3-[2-(1-hydroxy-1-methylethyl)phenyl]propyl]thio]methyl]cyclopropaneacetic acid, monosodium salt] | over 250% | – |
| CC(C)(O)c1ccccc1CC[C@@H](SCC1(CC(=O)[O-])CC1)c1cccc(/C=C/c2ccc3ccc(Cl)cc3n2)c1.[Na+] [Sample 7, Montelukast sodium] | – | 0.26 |
| CC(C)(O)c1ccccc1CC[C@@H](SCC1(CC(=O)[O-])CC1)c1cccc(/C=C/c2ccc3ccc(Cl)cc3n2)c1.[Na+] [Sample 1, Montelukast sodium] | – | 0.63 |
